Inhibition and IC50 data for 25 compounds are collected here from ChEMBL document CHEMBL4715777, “Synthesis and topoisomerases inhibitory activity of heteroaromatic chalcones” (Bioorg Med Chem, 2016).

Each structure is given as a SMILES string. Where a name gives a salt, the structure may show the parent alone.

Assay [1] addresses T1, DNA topoisomerase 1 (Homo sapiens) (UniProt P11387).
T1 sequence (whole entry): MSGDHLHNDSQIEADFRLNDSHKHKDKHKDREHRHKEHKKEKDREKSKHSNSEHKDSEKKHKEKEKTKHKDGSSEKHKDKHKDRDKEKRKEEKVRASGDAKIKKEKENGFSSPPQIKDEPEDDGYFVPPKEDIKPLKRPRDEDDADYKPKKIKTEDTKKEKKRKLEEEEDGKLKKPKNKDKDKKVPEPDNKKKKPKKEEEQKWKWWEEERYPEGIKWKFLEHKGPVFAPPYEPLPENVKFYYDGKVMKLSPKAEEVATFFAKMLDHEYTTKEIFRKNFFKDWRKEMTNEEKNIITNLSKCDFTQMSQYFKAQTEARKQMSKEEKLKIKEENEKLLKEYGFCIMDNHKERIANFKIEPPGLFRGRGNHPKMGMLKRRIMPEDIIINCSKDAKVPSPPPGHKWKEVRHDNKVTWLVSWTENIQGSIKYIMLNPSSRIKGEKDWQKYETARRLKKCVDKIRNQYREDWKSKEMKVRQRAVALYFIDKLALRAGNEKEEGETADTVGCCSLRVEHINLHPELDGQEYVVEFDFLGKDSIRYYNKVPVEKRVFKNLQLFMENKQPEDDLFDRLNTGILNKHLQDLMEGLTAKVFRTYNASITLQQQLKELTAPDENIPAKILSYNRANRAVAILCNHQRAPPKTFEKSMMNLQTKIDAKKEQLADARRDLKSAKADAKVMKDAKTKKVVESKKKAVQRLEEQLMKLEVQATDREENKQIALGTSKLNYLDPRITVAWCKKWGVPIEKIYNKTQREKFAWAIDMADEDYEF
Nature of the assay: Inhibition of recombinant human DNA topoisomerase 1 expressed in baculovirus expression system assessed as decrease in relaxation of supercoiled pBR322 plasmid DNA at 100 uM using supercoiled pBR322 plasmid DNA as substrate incubated for 30 mins by ethidium bromide staining-based UV imaging analysis relative to control.

Assay [2] concerns the target DNA topoisomerase 2-alpha (Homo sapiens) (UniProt P11388). Nature of the assay: Inhibition of human DNA topoisomerase 2alpha assessed as decrease in relaxation of supercoiled pBR322 plasmid DNA at 100 uM using supercoiled pBR322 plasmid DNA as substrate incubated for 30 mins in presence of ATP by ethidium bromide staining-based UV imaging analysis relative to control.

The subject of a further assay is MDA-MB-231. Nature of the assay: Cytotoxicity against human MDA-MB-231 cells assessed as cell growth inhibition measured after 2 days by cell counting kit-8 assay. The conditions noted are these: MDA-MB-231, 48 h. Type of assay: functional, cell-based. (In general: Formazan colour is commonly taken as a measure of viable cells.)
The subject of another assay is MDA-MB-468. The assay is described as follows: Cytotoxicity against human MDA-MB-468 cells assessed as cell growth inhibition measured after 2 days by cell counting kit-8 assay. Type of assay: functional, cell-based. The conditions noted are these: MDA-MB-468, 48 h.
For another assay, the system named is T47D. The assay is described as follows: Cytotoxicity against human T47D cells assessed as cell growth inhibition measured after 2 days by cell counting kit-8 assay. The conditions noted are these: 48 h. Type of assay: functional, cell-based.
Assay [3] deals with T1, DNA topoisomerase 1 (Homo sapiens). The assay is described as follows: Inhibition of recombinant human DNA topoisomerase 1 expressed in baculovirus expression system assessed as decrease in relaxation of supercoiled pBR322 plasmid DNA at 20 uM using supercoiled pBR322 plasmid DNA as substrate incubated for 30 mins by ethidium bromide staining-based UV imaging analysis relative to control.

Assay [4] has as its target DNA topoisomerase 2-alpha (Homo sapiens) (UniProt P11388). The assay is described as follows: Inhibition of human DNA topoisomerase 2alpha assessed as decrease in relaxation of supercoiled pBR322 plasmid DNA at 20 uM using supercoiled pBR322 plasmid DNA as substrate incubated for 30 mins in presence of ATP by ethidium bromide staining-based UV imaging analysis relative to control.

DNA topoisomerase 2-alpha (Homo sapiens), sequence (P11388 whole entry): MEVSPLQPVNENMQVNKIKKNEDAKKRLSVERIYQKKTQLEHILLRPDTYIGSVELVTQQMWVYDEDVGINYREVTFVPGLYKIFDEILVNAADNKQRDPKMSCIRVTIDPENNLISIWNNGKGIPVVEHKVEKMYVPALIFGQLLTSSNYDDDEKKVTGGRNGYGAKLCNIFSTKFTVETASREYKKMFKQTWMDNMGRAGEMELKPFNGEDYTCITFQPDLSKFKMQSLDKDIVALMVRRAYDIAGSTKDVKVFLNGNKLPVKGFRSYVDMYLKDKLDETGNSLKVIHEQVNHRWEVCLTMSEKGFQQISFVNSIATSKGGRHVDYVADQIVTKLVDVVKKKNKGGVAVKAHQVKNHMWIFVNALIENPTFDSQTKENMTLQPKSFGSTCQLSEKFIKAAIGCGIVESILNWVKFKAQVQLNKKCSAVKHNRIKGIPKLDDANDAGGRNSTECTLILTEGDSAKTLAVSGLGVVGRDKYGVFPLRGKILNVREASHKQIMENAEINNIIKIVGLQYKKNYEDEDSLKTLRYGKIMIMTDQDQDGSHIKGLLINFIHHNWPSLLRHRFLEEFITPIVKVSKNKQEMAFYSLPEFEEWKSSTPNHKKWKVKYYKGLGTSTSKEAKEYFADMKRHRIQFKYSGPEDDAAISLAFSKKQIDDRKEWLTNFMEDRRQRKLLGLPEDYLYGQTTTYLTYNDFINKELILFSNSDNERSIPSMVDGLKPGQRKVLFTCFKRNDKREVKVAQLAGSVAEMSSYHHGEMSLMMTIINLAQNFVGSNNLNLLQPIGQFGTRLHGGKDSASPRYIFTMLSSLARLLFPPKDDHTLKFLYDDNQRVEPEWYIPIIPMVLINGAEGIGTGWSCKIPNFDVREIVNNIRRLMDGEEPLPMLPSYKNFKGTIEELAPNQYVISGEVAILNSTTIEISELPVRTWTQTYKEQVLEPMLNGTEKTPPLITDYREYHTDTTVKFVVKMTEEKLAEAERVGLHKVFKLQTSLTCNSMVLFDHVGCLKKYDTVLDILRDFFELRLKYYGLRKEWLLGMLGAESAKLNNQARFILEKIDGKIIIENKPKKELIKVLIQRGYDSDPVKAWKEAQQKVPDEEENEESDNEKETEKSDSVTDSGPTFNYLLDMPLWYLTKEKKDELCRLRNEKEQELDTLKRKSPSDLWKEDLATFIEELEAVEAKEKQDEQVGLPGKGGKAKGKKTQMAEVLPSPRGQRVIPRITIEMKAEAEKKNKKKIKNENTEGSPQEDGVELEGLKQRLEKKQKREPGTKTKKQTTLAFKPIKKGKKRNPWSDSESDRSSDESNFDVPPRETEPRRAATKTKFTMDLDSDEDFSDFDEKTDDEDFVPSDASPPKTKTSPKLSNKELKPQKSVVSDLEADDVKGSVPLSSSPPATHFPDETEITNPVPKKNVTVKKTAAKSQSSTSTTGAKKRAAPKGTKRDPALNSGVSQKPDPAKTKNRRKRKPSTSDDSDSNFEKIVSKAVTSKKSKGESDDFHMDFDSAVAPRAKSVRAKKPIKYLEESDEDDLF

What is called inhibition is the drop in the measured response relative to a control, in per cent. As a reminder, the IC50 is the point on the concentration scale where inhibition reaches its midpoint. As to `O=C(/C=C/c1ccoc1)c1ccc(OCC2CO2)cc1` (centres undefined), the figures for the inhibition in assay [1] and in assay [2] were 5.6% and 0.3%, respectively. Besides, the IC50 was 26.2 µM in the assay with MDA-MB-231, 16.5 µM with MDA-MB-468 and 20.6 µM with T47D.

For the compound `O=C(/C=C/c1ccco1)c1ccccc1OCC1CS1` (centres undefined), the inhibition was 6.4% in assay [3], 61.2% in assay [1], 95.4% in assay [2] and 30.6% in assay [4]. The IC50 stood at 32.2 µM in the assay on MDA-MB-231, 8.26 µM with MDA-MB-468 and 6.61 µM in the assay with T47D.

Regarding `O=C(/C=C/c1ccc(OCC2CS2)cc1)c1ccco1` (centres undefined), the results for the inhibition in assay [1] and in assay [2] were 3.3% and 0%, respectively. Further, the concentration for half-maximal inhibition (IC50) with MDA-MB-231 came out at 24.1 µM; in the assay with MDA-MB-468 it was 8.35 µM; in the assay on T47D it was 10.6 µM.

As to `O=C(/C=C/c1ccc(OCC2CO2)cc1)c1ccco1` (centres undefined), the inhibition in assay [1] and in assay [2] was 0% in each case. The figures for the IC50 with MDA-MB-231, in the assay with MDA-MB-468 and in the assay with T47D were 22.2 µM, 17.3 µM and 11.2 µM, respectively.

In the case of `O=C(/C=C/c1cccs1)c1ccc(OCC2CO2)cc1` (centres undefined), the results for the inhibition in assay [1] and in assay [2] were 0% and 0.6%, respectively. Besides, the IC50 was 28.3 µM in the assay with MDA-MB-231, 17.2 µM in the assay on MDA-MB-468 and 17.8 µM in the assay on T47D.

For the compound `O=C(/C=C/c1ccco1)c1cccc(OCC2CS2)c1` (centres undefined), the inhibition in assay [3] came out at 1.3%; in assay [1], 75.4%; in assay [2] it was 90.4%; in assay [4], 29.8%. For the same compound, the IC50 with MDA-MB-231 came to 28.9 µM; in the assay on MDA-MB-468, 7.23 µM; in the assay with T47D, 10.4 µM.

As to `COc1cc([C@@H]2c3cc4c(cc3[C@@H](O[C@@H]3O[C@@H]5CO[C@@H](C)O[C@H]5[C@H](O)[C@H]3O)[C@H]3COC(=O)[C@H]23)OCO4)cc(OC)c1O` [ETOPOSIDE], the inhibition in assay [1] was less than 30%. In addition, the IC50 is 9.13 µM with MDA-MB-231, 0.86 µM with MDA-MB-468 and 1.96 µM in the assay with T47D.

`CC[C@@]1(O)C(=O)OCc2c1cc1n(c2=O)Cc2cc3ccccc3nc2-1` [CAMPTOTHECIN]: the inhibition in assay [2] is less than 30%. Moreover, the values for the concentration for half-maximal inhibition (IC50) in the assay with MDA-MB-231, with MDA-MB-468 and in the assay with T47D were 8.83 µM, 1.71 µM and 3.67 µM, respectively.

Consider `O=C(/C=C/c1cccs1)c1ccccc1OCC1CO1` (centres undefined), for which the figures for the inhibition in assay [1] and in assay [2] were 11.1% and 0.7%, respectively. The half-inhibitory concentration (IC50) came out at 17.9 µM with MDA-MB-231, 7.71 µM with MDA-MB-468 and 17.7 µM in the assay on T47D.

Turning to `O=C(/C=C/c1cccs1)c1cccc(OCC2CO2)c1` (centres undefined), the inhibition was determined as 2.7% in assay [1] and 3.9% in assay [2]. The IC50 with MDA-MB-231 came to 15.4 µM; in the assay with MDA-MB-468, 16.3 µM; in the assay on T47D, 14.6 µM.

As to `O=C(/C=C/c1ccco1)c1ccccc1OCC1CO1` (centres undefined), the inhibition in assay [3] turned out to be 24.2%; in assay [1], 36.8%; in assay [2], 82.3%; in assay [4], 0%. The IC50 was 28.7 µM in the assay on MDA-MB-231, 48.3 µM in the assay on MDA-MB-468 and 19.4 µM in the assay with T47D.

For the compound `O=C(/C=C/c1ccc(OCC2CS2)cc1)c1cccs1` (centres undefined), the figures for the inhibition in assay [1] and in assay [2] were 5.1% and 0%, respectively. Further, the IC50 in the assay with MDA-MB-231 was found to be 17.3 µM; in the assay on MDA-MB-468 it was 6.14 µM; with T47D, 3.83 µM.

Consider `O=C(/C=C/c1ccc(OCC(O)CCl)cc1)c1ccco1` (centres undefined), for which the inhibition in assay [1] turned out to be 1.8%; in assay [2], 0%. In addition, the results for the IC50 with MDA-MB-231, in the assay on MDA-MB-468 and with T47D were greater than 50 µM, 9.53 µM and greater than 50 µM, respectively.

Turning to `O=C(/C=C/c1cccs1)c1ccc(OCC2CS2)cc1` (centres undefined), the inhibition in assay [1] came out at 14.5%; in assay [2], 0%. The half-maximal inhibitory concentration (IC50) in the assay with MDA-MB-231 was 16.7 µM; in the assay on MDA-MB-468 it was 5.27 µM; in the assay on T47D it was 11.1 µM.

For the compound `O=C(/C=C/c1ccco1)c1ccc(OCC2CO2)cc1` (centres undefined), the results for the inhibition in assay [3], in assay [1] and in assay [2] were 0%, 36.8% and 6.6%, respectively. In addition, the figures for the IC50 in the assay with MDA-MB-231, in the assay with MDA-MB-468 and in the assay with T47D were 47.1 µM, 48.9 µM and 17.7 µM, respectively.

On to `O=C(/C=C/c1ccco1)c1cccc(OCC2CO2)c1` (centres undefined), for which the inhibition in assay [1] came to 28.5%; in assay [2], 67.6%; in assay [4], 0.3%. Also, the IC50 in the assay on MDA-MB-231 was determined as 27.8 µM; in the assay with MDA-MB-468 it was 37.3 µM; with T47D it was 22.7 µM.

Consider `O=C(/C=C/c1ccoc1)c1ccc(OCC2CS2)cc1` (centres undefined), for which the inhibition in assay [1] and in assay [2] was 0% throughout. In addition, the IC50 amounted to 19.3 µM in the assay on MDA-MB-231, 5.3 µM in the assay on MDA-MB-468 and 12.3 µM in the assay with T47D.

On to `O=C(/C=C/c1cccs1)c1ccccc1OCC1CS1` (centres undefined), for which the inhibition in assay [1] and in assay [2] was 0.4% in each case. Further, the IC50 amounted to 17.9 µM in the assay on MDA-MB-231, 4.35 µM in the assay on MDA-MB-468 and 7.01 µM with T47D.

On to `O=C(/C=C/c1ccsc1)c1ccc(OCC2CO2)cc1` (centres undefined), for which the inhibition in assay [3] is 0%; in assay [1], 46.3%; in assay [2], 2.7%. The IC50 stood at 11.1 µM in the assay on MDA-MB-231, 10.8 µM in the assay with MDA-MB-468 and 10.6 µM with T47D.

In the case of `O=C(/C=C/c1ccco1)c1ccc(OCC2CS2)cc1` (centres undefined), the inhibition is 0% in assay [3], 63.8% in assay [1], 94.5% in assay [2] and 24.7% in assay [4]. Also, the IC50 turned out to be 18 µM with MDA-MB-231, 4.32 µM in the assay with MDA-MB-468 and 9.44 µM in the assay on T47D.

Regarding `O=C(/C=C/c1ccc(OCC2CO2)cc1)c1cccs1` (centres undefined), the results for the inhibition in assay [3], in assay [1] and in assay [2] were 15.6%, 34.1% and 0%, respectively. Moreover, the IC50 in the assay with MDA-MB-231 came out at 13.9 µM; in the assay on MDA-MB-468, 6.3 µM; with T47D it was 10.6 µM.

`COc1cccc2c1C(=O)c1c(O)c3c(c(O)c1C2=O)C[C@@](O)(C(=O)CO)C[C@@H]3O[C@H]1C[C@H](N)[C@H](O)[C@H](C)O1` [DOXORUBICIN HYDROCHLORIDE]: the IC50 is 3.6 µM in the assay with MDA-MB-231, 2.15 µM in the assay on MDA-MB-468 and 2.18 µM in the assay on T47D.

Regarding `O=C(/C=C/c1ccc(OCC(O)CCl)cc1)c1cccs1` (centres undefined), the inhibition in assay [1] was 4.3%; in assay [2] it was 3.7%. Also, the IC50 with MDA-MB-231 was determined as 30.3 µM; with MDA-MB-468, 7.75 µM; in the assay with T47D it was 13 µM.

With `O=C(/C=C/c1cccs1)c1cccc(OCC2CS2)c1` (centres undefined), the values for the inhibition in assay [1] and in assay [2] were 0% and 3.7%, respectively. For the same compound, the half-maximal inhibitory concentration (IC50) in the assay with MDA-MB-231 stood at 19.9 µM; in the assay on MDA-MB-468, 6.98 µM; in the assay on T47D, 10.6 µM.

Consider `O=C(/C=C/c1ccsc1)c1ccc(OCC2CS2)cc1` (centres undefined), for which the values for the inhibition in assay [3], in assay [1] and in assay [2] were 0%, 100% and 0%, respectively. Further, the values for the IC50 with MDA-MB-231, in the assay on MDA-MB-468 and in the assay on T47D were 50 µM, 23.8 µM and 9.32 µM, respectively.
